According to patent publication US20200140951A9, “Transcriptional system and uses thereof for single cell detection” (Université Laval, priority 2017, published 2020):
Values joined by “and” are separate entries in the source; they are usually repeats but may differ in a detail not shown here. Equal values may be shown once.

Tests used:
22Rv1 cells [1] = experiment: Growth curves of PCa cells (cell counter); type: cell-based; settings: DHT 1 nM + antiandrogen 10 μM; six days of culture
Experimental: The cells were trypsinized and counted using a cell counter after six days of culture. Relative cell count=number of cells at each time point÷number of cells at 0 h. Data represent technical triplicates±SD.

[2] = system: AR transcriptional activity in 22Rv1-GFP cells; settings: DHT 1 nM + antiandrogen 10 μM; 48 h
Experimental: (§1) (A) Scheme for targeting spiked PCa cells from urine. (B) PCa cells (22Rv1 stably expressing mCherry) were spiked in the urine of an healthy individual. […] Seventy-two hours after infection the cells were imaged by adding D-luciferin substrate and with an exposure time of 5 min per image using the bioluminescence microscope. […] Urine samples from healthy patients were spiked with 250 PCa cells stably expressing GFP (22Rv1-GFP or LAPC4-GFP). Urine was spun down to collect all the cells. These cells were infected with 5×10^5 virus particles of PCA3-Cre-PSEBC-ITSTA. […] Forty-eight hours post treatment imaging was repeated to assess response on the same cells to determine change in luciferase expression. Relative grey intensity=((sum grey intensity per ROI−sum grey intensity of background)÷sum grey intensity at 0 h)×100).
(§2) Urine samples from healthy patients were spiked with 250 PCa cells stably expressing GFP (22Rv1-GFP or LAPC4-GFP). Urine was spun down to collect all the cells. These cells were infected with 5×10^5 virus particles of PCA3-Cre-PSEBC-ITSTA. […] Forty-eight hours post treatment imaging was repeated to assess response on the same cells to determine change in luciferase expression. Relative grey intensity=((sum grey intensity per ROI−sum grey intensity of background)÷sum grey intensity at 0 h)×100).

[3] = system: AR transcriptional activity in LAPC4-GFP cells; settings: 48 h
Experimental: as §1, §2

[4] = system: AR transcriptional activity in PCa cells from urine/bladder wash of patients
From the text: (A) & (B) Images show the H&E staining and IHC using anti-PSA for castration sensitive prostate cancer (CSPC) and castration resistance prostate cancer (CRPC) patients, case 9 and 11 respectively. (C), (D), (E) & (F) Graphs show single cell response to treatment detected with PCA3-Cre-PSEBC-ITSTA in PCa cells from case 9 and 11. Urine/bladder wash from patients post-DRE was sampled and spun down to collect all the cells. These cells were infected with 5×10^5 virus particles of PCA3-Cre-PSEBC-ITSTA. […] Forty-eight hours post treatment imaging was repeated to assess response on the same cells to determine change in expression. Relative grey intensity=((sum grey intensity per ROI−sum grey intensity of background)÷ sum grey intensity at 0 h)×100).
(D) Images show the H&E staining and IHC using anti-PSA for castration resistance prostate cancer (CRPC) patients 11. […] Urine or bladder wash from patients was sampled and spun down to collect all the cells. These cells were infected with 5×10^5 virus particles of PCA3-Cre-PSEBC-ITSTA. […] Forty-eight hours post treatment imaging was repeated to assess response on the same cells.
Forty-eight hours later, single cell bioluminescence was measured again. Single cell response to antiandrogen was determined and cells were considered as resistant if luciferase activity increased despite antiandrogen treatment.
Forty-eight hours post-treatment, single cell bioluminescence was measured again. For case 22, sampling was done as a naïve state before any treatment was received. Similar analysis as cell lines was performed.
The above described procedure for isolation was used to isolate cells from these samples. The samples were then infected with 5×10^5 ivp of PCA3-Cre-PSEBC-TSTA-fl adenovirus. […] Forty-eight hours later, bioluminescence imaging was repeated on the same cells. Percentage of targeted cells=(number bioluminescence positive cells÷number m-cherry positive cells)×100. The sum of gray intensity values was determined for single cells before and after treatment using CellSens software. Relative gray intensity=((sum gray intensity per ROI−sum gray intensity of background)÷sum gray intensity at 0 h)×100).

[5] = system: AR activity in LAPC4-GFP single cells; experiment: Single cell treatment response, PSEBC-TSTA bioluminescence microscopy; type: cell-based; settings: for cells with decrease in fl activity / cells with increase in fl activity: n=10 cells, 48 h treatment, DHT 1 nM or DHT+Enz 1 nM+10 μM
Experimental: Forty-eight hours post-infection, the cells were imaged after D-luciferin addition. […] GFP biofluorescence imaging was then performed every 5 h to track the cells. After 48 hours of treatment, luciferase imaging was repeated to determine the change in fl expression. […] The corresponding cells tracked and imaged by biofluorescence microscopy is also shown. […] LAPC4-GFP cells were infected with PCA3-3STA, treated and imaged as described in (A). (D) Upper panel: Scheme of the method used to isolate and image spiked PCa cells from blood. […] Every 5 h, GFP biofluorescence imaging was performed to track the cells. At 48 h, luminescence imaging was repeated to determine single cell fl expression changes. Lower panels: Biofluorescence and bioluminescence images of blood spiked-LAPC4-GFP cells transduced with PSEBC-TSTA after PCa cell isolation. (E) Bioluminescence microscopy quantification of single cell responses to AR-antagonists after PSEBC-TSTA transduction of PCa spiked cells (LAPC4-GFP). Relative grey intensity=((sum grey intensity per ROI−sum grey intensity of background)÷sum grey intensity at 0 h)×100. Data represent technical triplicates±SD.
Forty-eight hours after infection, the cells were imaged by adding D-luciferin and an exposure time of 15 secs per image under bioluminescence microscopy. […] GFP biofluorescence imaging was performed every 5 h to track the cells. After 48 hours, luminescence imaging was performed again on the same cells to determine the changes in fl activity. Relative grey intensity was quantified for n=10 cells in each treatment condition before and after treatment. Relative grey intensity=((sum grey intensity per ROI−sum grey intensity of background)÷sum grey intensity at 0 h)×100. Each ROI defines a single cell.
To track the change in position and growth of single cells in which fl activity was measured, biofluorescence microscopy imaging was performed every 5 h for 48 h (GFP-positive cells) after which time bioluminescence imaging and quantification were repeated on the same cells. Sum grey intensity was then determined for single cells before and after treatment using the cellSens soft-ware. Relative grey intensity=((sum grey intensity per ROI−sum grey intensity of background)÷sum grey intensity at 0 h)×100.

[6] = system: AR transcription in LNCaP-GFP cells; experiment: Single cell treatment response of spiked cells isolated from blood, PSEBC-TSTA; type: cell-based; settings: DHT+Enz 1 nM+10 μM; 48 h
Experimental: FIG. 15 LNCaP cells displaying greater cell-to-cell AR-transcriptional homogeneity upon treatment when compared to LAPC4 cells. […] Forty-eight hours after infection, the cells were imaged after an exposure time of 15 secs per image under bioluminescence microscopy. […] Biofluorescence microscopy imaging was performed for each well for 48 h, with images taken every 5 h to track the cells. Luciferase imaging was performed again on the same cells to determine the change in fl expression.
Blood was collected from a healthy donor and placed in a heparin-coated tube. This study was approved by the Institutional Review Board of the CHU de Quebec Hospital, Quebec, QC, Canada. Informed consent was obtained by the donor for blood sampling. All experiments were performed in accordance with relevant guidelines and regulations. LAPC4 and LNCaP cells were added to the blood sample (500 cells/3 ml of blood), followed by a custom-made RosetteSep cocktail ([…] Technologies, Vancouver, BC, Canada) at a volume of 50 μl per ml. The sample was gently mixed and incubated thereafter at room temperature for 20 min. Fifteen milliliters of Ficoll-Paque Plus (GE healthcare Life Sciences, Mississauga, ON, Canada) were then placed in a 50 ml SepMate tube ([…] Technologies) 31 and blood was poured gently along the walls of the tube onto the Ficoll layer. […]

22Rv1 cells [7] = experiment: Viability assay (resazurin); type: cell-based; settings: DHT 1 nM + antiandrogen 10 μM
Experimental: (§3) LAPC4, and 22Rv1 cells were seeded. […] The cells proliferation was measured using resazurin. Relative cell count=(Fluorescence at each time point÷fluorescence at 0 h). Data represents technical triplicates±SD.

LAPC4 cells = experiment: Viability assay (resazurin); type: cell-based; settings: DHT 1 nM + antiandrogen 10 μM
Experimental: as §3

CC(O)(CS(=O)(=O)c1ccc(F)cc1)C(=O)Nc1ccc(C#N)c(C(F)(F)F)c1 (centres unmarked) [Bic, bicalutamide]
growth inhibition (relative cell count) (22Rv1 cells [1]): not inhibited
percentage of cells with increased activity relative to DHT treated group [2]: 114%
cells with decrease in luciferase activity ([3]; DHT 1 nM + Bic 10 μM): 60%
cells with increase in luciferase activity ([3]; DHT 1 nM + Bic 10 μM): 40%
percentage of cells with increased activity relative to DHT treated group ([3]; DHT 1 nM + antiandrogen 10 μM): 14%
cells with decrease in PSEBC activity [4]: 80% and 60%
cells with increase in fl expression [4]: 50%
level of AR activity of AR active cells (relative mean luminescence activity per cell) [4]: 418.5%
urine PCa cells with increase in PSEBC promoter dependent fl activity compared to DHT only group [4]: 44% and 67%
urine tumor cells AR active (relative fraction of AR active cells) [4]: 63%

C[C@]12CCC(=O)C[C@@H]1CC[C@@H]1[C@@H]2CC[C@]2(C)[C@@H](O)CC[C@@H]12 [DHT, dihydrotestosterone]
induction of sum of fl activity of ten single cells ([5]; DHT 1 nM, 48 h): 8.8 fold
cells with decrease in fl activity [5]: 20%
cells with increase in fl activity [5]: 80%
cells with decrease in PSEBC activity [4]: 60%

CNC(=O)c1ccc(N2C(=S)N(c3ccc(C#N)c(C(F)(F)F)c3)C(=O)C2(C)C)cc1F [Enz, enzalutamide]
effect on DHT induction of sum of fl activity of ten single cells ([5]; DHT 1 nM + antiandrogen 10 μM, 48 h): inhibited
cells with decrease in fl activity [5]: 70%
cells with increase in fl activity [5]: 30%
single cell AR transcriptional response pattern [6]: homogeneous response
growth inhibition (resazurin proliferation) (22Rv1 cells [7]): did not display inhibited growth
growth inhibition (resazurin proliferation) (LAPC4 cells): displayed inhibited growth
